Results as given in a melting point compilation (Tetko et al.; mined from patent text by program, amines drawn as free bases though some values may be those of a salt).

First: Cc1nc2c(c(=O)[nH]1)-c1cc(S(=O)(=O)Nc3ccc([N+](=O)[O-])cc3)ccc1CC2
Second: CC(=O)CC(=O)N1N=C(c2ccc([N+](=O)[O-])cc2)c2cc3c(cc2CC1C)OCO3 (stereo not drawn)
The melting point of the first is higher: > 240 °C for the first, 169 to 171 °C for the second.

First: COC(=O)c1nc(C)c(F)c(N)c1Cl
Second: CCOC(=O)c1cc(I)c(F)c(F)c1F
The melting point of the first is higher: 113 to 114 °C for the first, 33 to 34 °C for the second.

First: CC(=O)OC[C@H]1NC(=O)[C@H]1NC(=O)C(=NOC(C)(C)C(=O)OCc1ccc([N+](=O)[O-])cc1)c1csc(NC(=O)CCl)n1 (relative stereo)
Second: COC(=O)[C@H](CC(=O)OC(C)(C)C)NC(=O)c1cccc(NC(=O)c2ccc(C#N)cc2)c1
The melting point of the first is higher: 120 to 123 °C for the first, 83 to 84 °C for the second.

Compared with `Cc1nn(-c2cc3nc(S)sc3cc2Br)c(=O)n1C(F)F`, `Cc1nc2ccc(F)cc2[nH]c1=O` is higher in melting point: 254 to 256 °C for the first, 258 to 260 °C for the second.

First: CS(=O)(=O)c1ccc(-c2cnn(CC(F)(F)F)c(=O)c2-c2ccc(Cl)c(F)c2)cc1
Second: O=C(Nc1cn[nH]c1-c1ccc(F)cc1)c1c(F)cccc1F
The melting point of the first is higher: 174 to 175 °C for the first, 112 °C for the second.

Compared with `NC(=O)C1=C(c2ccccc2)C(c2ccccc2)OC1=O` (stereo not drawn), `O=C(Cc1ccccc1)NN(C1=NCCS1)c1ccccc1` is lower in melting point: 125 to 127 °C for the first, 121 to 124 °C for the second.

Compared with `O=C(NCCCn1ccnc1)c1ccccc1NS(=O)(=O)c1ccc(Cl)cc1`, `O=C(CSCc1ccccc1)CS(=O)(=O)C(c1ccc(Cl)cc1)c1ccc(Cl)cc1` is lower in melting point: 175 to 177 °C for the first, 108 to 110 °C for the second.

Compared with `C#CCNC(=O)N1CC(Oc2cccc(C(F)(F)F)c2)C1`, `COc1cn(-c2cccc(C(F)(F)F)c2)nc(C(=O)C=CN(C)C)c1=O` is higher in melting point: 105 to 106 °C for the first, 176 to 178 °C for the second.

Compared with `CCCc1c(C(C)C)nc(C(C)C)c(CO)c1-c1ccc(F)cc1`, `CCOC(=O)c1c(C(C)(C)C)oc(-c2ccccc2)c1-c1ccc(F)cc1` is higher in melting point: 49 to 54 °C for the first, 93 to 94 °C for the second.

First: CCN(CC)CCCn1[nH]c(C)c2c(=O)nc(-c3ccncc3)nc1-2
Second: Clc1ccc2[nH]c3c(c2c1)CN(CCCCc1ccncc1)CC3
The melting point of the first is lower: 164 to 166 °C for the first, 227 to 228 °C for the second.

First: COc1ccc(CNc2ncnc3c2ncn3C2OC(c3nnn[nH]3)C(O)C2O)cc1 (stereo not drawn)
Second: COc1ccc(OC)c(CCc2ccc3ncnc(N)c3c2)c1
The melting point of the first is higher: 210 to 211 °C for the first, 160 to 165 °C for the second.

First: O=C1Cc2cc(C3=NNC(=O)C4CC34)ccc2N1 (stereo not drawn)
Second: O=C1CCC(=O)C(c2cccc(Cl)c2)N1 (stereo not drawn)
The melting point of the first is higher: 305 to 307 °C for the first, 144 to 147 °C for the second.

First: CNc1cn(-c2cncc(F)c2)nc1C
Second: CCOC(=O)c1cn(C)nc1Nc1ccc(F)cc1[N+](=O)[O-]
The melting point of the first is lower: 142 to 144 °C for the first, 162 °C for the second.

Compared with `O=C(Cc1ccc(Cl)c(Cl)c1)N1CCCC(N2CCCC2)C1` (stereo not drawn), `O=C(O)c1csc(NC(=O)C(CC2CCCC2)c2ccc(Cl)c(Cl)c2)n1` (stereo not drawn) is higher in melting point: 134 to 135 °C for the first, 285 to 287 °C for the second.

Compared with `CCOc1ncc(NC(=O)Nc2c(CC)cccc2CC)c(-c2ccccc2Cl)n1`, `COC(=O)CC(Nc1ccccc1OC)c1cc2ccccc2nc1Cl` (stereo not drawn) is lower in melting point: 190 to 191 °C for the first, 135 to 137 °C for the second.

Compared with `CC(C)(C)c1ccc(Cn2cc(C(=O)C(=O)O)c3cc(-c4cccc(Cl)c4)ccc32)cc1`, `Cc1cc(SCc2ccc(OCc3ccc(C(C)(C)C)cc3)cc2)ccc1OCC(=O)O` is lower in melting point: 138 to 139 °C for the first, 135 to 137 °C for the second.

First: COC(=O)c1cc(-c2nc(COc3ccc(CCl)cc3OC)c(C)o2)ccc1C
Second: CCOc1ccc(-c2nc(CCC(=O)OC)cs2)cc1OCC
The melting point of the first is higher: 139 to 140 °C for the first, 58.1 to 58.3 °C for the second.

First: Cc1noc(C)c1Cn1nnnc1-c1cccc(Cl)c1Cl
Second: CC1(C)C(=O)ON(Cc2ccc(Cl)cc2Cl)C1=O
The melting point of the first is higher: 176 to 178 °C for the first, 68 to 69.5 °C for the second.

Compared with `CCOC(=O)C(=O)Nc1nc2c(OC)ccc(-c3ccccc3)c2s1`, `COc1ccccc1-c1nc(CC(=O)O)cs1` is lower in melting point: 138 to 142 °C for the first, 104 to 105 °C for the second.

First: CC(=O)c1ccc(C(=O)OC(C)(C)C)cc1
Second: CCOC(=O)C(=O)N1CCC(Cc2ccc(C(C)(C)C)cc2)CC1
The melting point of the first is lower: 57.5 to 58.8 °C for the first, 168 °C for the second.

First: CN(CCOc1cc(-c2ccc(O)cc2)nn1C)CCc1ccc(Cl)cc1
Second: COCCOCc1c(C=O)sc2c(=O)c(C(=O)NCc3ccc(Cl)cc3)cn(C)c12
The melting point of the first is lower: 90 to 91 °C for the first, 152 to 153 °C for the second.

First: Cn1ccnc1N1CCN(c2ccc([N+](=O)[O-])cc2)CC1
Second: Oc1ccc(N2CCN(c3ccc(C(F)(F)F)cn3)CC2)cc1
The melting point of the first is higher: 193 to 194 °C for the first, 178 to 179 °C for the second.

Compared with `CCC1Sc2cc(Br)ccc2NC1=O` (stereo not drawn), `CC(COc1ccc(CC2SC(=O)NC2=O)cc1)NCC(O)Cc1ccccc1` (stereo not drawn) is higher in melting point: 100 °C for the first, 145 to 152 °C for the second.

First: CC(=O)NN(C(C)=O)[C@@H]1c2cc(C#N)ccc2OC(C)(C)[C@H]1O (relative stereo)
Second: CC(=O)Oc1cc(C(C)=O)cc(C#N)c1OC(C)=O
The melting point of the first is higher: 206 to 207 °C for the first, 76 to 79 °C for the second.

First: COc1ccc(C(c2ccc(OC)cc2)c2cnccc2C(=O)NC23CC4CC(CC2C4)C3)cc1
Second: COC(=O)c1ccc(OC(C)c2ccccc2OCc2ccccc2)cc1 (stereo not drawn)
The melting point of the first is higher: 110 to 112 °C for the first, 90.8 to 91.5 °C for the second.

First: CCCCc1oc2ccc(C(=O)OC)cc2c1C(=O)c1ccc(CCN=[N+]=[N-])cc1
Second: N#Cc1ccc2oc(CCc3ccc(C(=O)On4nnc5ccccc54)cc3)cc2c1
The melting point of the first is lower: 60 to 62 °C for the first, 171 to 172 °C for the second.

First: C=C(C)c1c(OCC)cc(Cc2cnc(N)nc2N)cc1OCC
Second: CCOc1ccc2c(c1)nc1n2CC(c2ccccn2)S1=O (stereo not drawn)
The melting point of the first is higher: 196 to 198 °C for the first, 145 to 147 °C for the second.

First: CCC(=O)NCC(COS(C)(=O)=O)c1cccc2ccc(OC)cc12 (stereo not drawn)
Second: CC(C)(O)Cc1ccc2ccccc2c1
The melting point of the first is higher: 118 to 120 °C for the first, 79 to 80 °C for the second.

Compared with `CNc1nnc(-c2ccc3occ(-c4ccccc4Cl)c3c2)o1`, `COc1c(F)cc2c(c1-c1ccc(C[C@H](NC(=O)c3c(Cl)cccc3Cl)C(=O)O)cc1)OCO2` is lower in melting point: 205 to 206 °C for the first, 198 to 199 °C for the second.

First: Fc1ccc2c(C3=CCN(CC4COc5ccc6[nH]c(C(F)(F)F)nc6c5O4)CC3)c[nH]c2c1 (stereo not drawn)
Second: C[C@@H]1S[C@@H](C(=O)Nc2ccc(CC3OC(=O)NC3=O)cc2)Cc2cc3c(cc2C1=O)OCO3 (stereo partly drawn)
The melting point of the first is higher: 215 to 220 °C for the first, 164 to 166 °C for the second.

First: O=C(O)c1cc(Oc2ccc([N+](=O)[O-])cc2)cc(Oc2ccc([N+](=O)[O-])cc2)c1
Second: O=C(O)[C@@H](CCCN1C(=O)c2ccccc2C1=O)NS(=O)(=O)c1ccc(Oc2ccccc2)cc1
The melting point of the first is higher: 230 to 232 °C for the first, 139 to 140 °C for the second.

First: N#Cc1ccc(N2C(=O)N(CCF)C(CF)(CF)C2=O)cc1C(F)(F)F
Second: N#Cc1nn(-c2c(Cl)cc(C(F)(F)F)cc2Cl)cc1C1CC1
The melting point of the first is higher: 136 to 137 °C for the first, 124 °C for the second.

First: CC(C)=NN(C)C1=NOCc2ccc(Cl)cc21
Second: COc1cn(-c2ccccc2F)nc(C(=O)N(C)OC)c1=O
The melting point of the first is lower: 105 to 106 °C for the first, 152 to 154 °C for the second.

First: O=C1CCCN1c1cccc(-c2ccc(CC34CCCN3C(=O)N(c3cc(Cl)cc(Cl)c3)C4=O)cc2)c1 (stereo not drawn)
Second: O=C1CCC(c2ccc(Cl)cc2)CN1CNC(=S)NCN1CC(c2ccc(Cl)cc2)CCC1=O (stereo not drawn)
The melting point of the first is lower: 86.5 °C for the first, 212 to 213 °C for the second.

First: COC(=O)C1OC(Oc2nc[nH]c2C(N)=O)C(OC(C)=O)C(OC(C)=O)C1OC(C)=O (stereo not drawn)
Second: O=C(COc1ccccc1)NC1C(=O)N2C1SCN(O)C2C(=O)OCc1ccccc1 (stereo not drawn)
The melting point of the first is higher: 211 to 212 °C for the first, 184 to 186 °C for the second.

First: CCOC(=O)c1cnc2n(c1=O)C(C)CCC2N(C)c1ccccc1 (stereo not drawn)
Second: CCOC(=O)c1cncn1-c1ccc(F)cc1
The melting point of the first is higher: 175 to 178 °C for the first, 114 to 115 °C for the second.

First: Cc1c(C(=O)O)cc(O)c2cc(-c3ccc4c(c3)C(C)(C)CCC4(C)C)ccc12
Second: COc1ccc(C2(c3ccc(-c4ccc(F)cc4)s3)N=C(N)N(C)C2=O)cc1C (stereo not drawn)
The melting point of the first is higher: 266 °C for the first, 110 °C for the second.

First: CC(C)(CCC(=O)N[C@H](Cc1ccc(-c2ccccc2)cc1)C(=O)NCCCCNc1ncccn1)C(=O)O
Second: O=C(O)c1cnc2cc(OCc3ccccc3)c(OCc3ccccc3)cn2c1=O
The melting point of the first is lower: 85 to 98 °C for the first, 208 °C for the second.

Going from `NS(=O)(=O)c1cccc(-c2cccc(-c3nc(-c4ccc(C(F)(F)F)c(OCC(F)(F)F)c4)cc(C(F)(F)F)n3)c2)c1` to `CCc1nc2c(C)c(S(=O)(=O)N(C)C)c(C)nc2n1Cc1ccc(-c2ccccc2-c2c(OC(C)C)c(=O)c2=O)cc1`, the melting point falls from 188 °C to 80 °C.

Compared with `CNCc1ccc(-c2cc3c4c(ccn4C(=O)CNC3)c2)cc1`, `O=c1[nH]c(-c2ccc(CCCCN3CCN(c4nsc5ccccc45)CC3)cc2)cs1` is lower in melting point: 178 to 180 °C for the first, 140 to 145 °C for the second.

Compared with `O=C(O)/C=C/c1ccc(C(=O)NC2CCCCC2)cc1`, `O=C1CC(O)CC(C=CC2=C(c3ccc(F)cc3)CC3CCC2C3)O1` (stereo not drawn) is lower in melting point: 214 °C for the first, 123 to 127 °C for the second.

First: Cc1ccc(C(=O)OC(C)c2nc3c(c(=O)n(C)c(=O)n3C)n2C)c(C)n1 (stereo not drawn)
Second: CCCc1c(OCCCSc2cccc(CC(=O)O)c2F)ccc(C(C)=O)c1O
The melting point of the first is higher: 160 °C for the first, 63 to 65 °C for the second.

First: O=P(O)(O)C(c1ccc2cc(O)ccc2c1)P(O)(O)=S (stereo not drawn)
Second: Cc1ccc(C(C#N)C=Cc2ccc(O)c(O)c2)cc1 (stereo not drawn)
The melting point of the first is higher: 210 to 211 °C for the first, 172 °C for the second.

Compared with `C=CCc1cc(O)c(CC=C)c(C=NO)c1O`, `COc1cc(C=CC(=O)Cc2ccccc2)ccc1O` is lower in melting point: 241 to 243 °C for the first, 85 to 87 °C for the second.

First: CC(=O)OCCNC(=O)Nc1ccc2c(c1)C(c1ccccc1F)=NCC(=O)N2C
Second: O=C(c1ccccc1)N1CCC2(CC1)Cc1ccccc1C2=O
The melting point of the first is higher: 196 to 198 °C for the first, 149 to 154 °C for the second.

Compared with `COCNC(=O)NC1CC(C)(C)N(C)C(C)(C)C1`, `Cc1nn(C)c(NC=O)c1C1=CCC(C)CC1` (stereo not drawn) is lower in melting point: 105 °C for the first, 97 to 99 °C for the second.

First: CSc1cnc2c(-c3ccccc3)csc2c1O
Second: Cc1ccc(C)c(NC(=S)N2CCC(c3nc(C4=NOC(c5ccccc5)C4)cs3)CC2)c1 (stereo not drawn)
The melting point of the first is higher: 273 to 275 °C for the first, 120 to 123 °C for the second.

Compared with `CS(=O)(=O)Nc1cccc(Nc2nc(N3CCC(O)C3)c3nc[nH]c3n2)c1` (stereo not drawn), `CSc1ncc2ccc(=O)[nH]c2n1` is higher in melting point: 243 to 248 °C for the first, 270 to 271 °C for the second.

Compared with `Cc1cscc1NC(=S)Nc1c(N)c(F)c(F)c(F)c1F`, `O=C1CCCC2CN(C(Cc3ccccc3)=NCc3cccs3)CC12` (stereo not drawn) is lower in melting point: 286 to 290 °C for the first, 114 °C for the second.
